Experimental data taken from patent US20240269145A1, “USE OF INDOLE COMPOUND AS INHIBITORS OF FERROPTOSIS” (MITOIMMUNE THERAPEUTICS INC., priority 2023, published 2024).

Columns and labels:
Assay type in all cases: cell-based
MLE-12 cells [1] = assay: Mitochondrial iron ion accumulation (Mito-FerroGreen, flow cytometry) after RSL3; conditions: MLE-12, 1 μM RSL3, 8 hours
Experimental: To confirm the inhibitory effect against mitochondrial iron ion accumulation in lung epithelial cells, 2×10^5 MLE-12 cells were dispensed into each well of a 12-well plate and cultured for 18 to 24 hours. Each well was treated with Example Compound 1 and ferrostatin-1, which were diluted so that their final concentration became 0.01, 0.1, 1, and 10 μM, and culture was performed for 15 minutes. Afterwards, the cells were treated so that the final concentration of RSL3 became 1 μM, and cultured for 8 hours. To confirm the inhibitory effect against mitochondrial iron ion accumulation, Mito-FerroGreen [DOJINDO; M489] was used. According to the manufacturer's experimental method, Mito-FerroGreen was diluted in the cell culture medium so that the final concentration became 1 μM, and the cells were treated therewith and allowed to react for 30 minutes to perform fluorescent staining. The MLE-12 cells fluorescently stained with Mito-FerroGreen were detached from the 12-well plate using 0.25% Trypsin-EDTA and transferred to a microtube, and the fluorescence (excitation/absorption 505 nm/535 nm) was measured using BD FACSLyric™ to calculate the rate of change compared to the control group.

MLE-12 cells [2] = assay: Cytosolic lipid ROS (BODIPY 581/591 C11) after RSL3, Experimental Example 3-1; conditions: MLE-12, 1 μM RSL3, 2 hours; tested 0.01-10 μM
Experimental: Experimental Example 3-1: To confirm the protective effect against cytosolic lipid reactive oxygen species in lung epithelial cells, 2×10^5 MLE-12 cells were dispensed into each well of a 12-well plate and cultured for 18 to 24 hours. Each well was treated with Example Compound 1 and ferrostatin-1, which were diluted so that their final concentration became 0.01, 0.1, 1, and 10 μM, and culture was performed for 15 minutes. Afterwards, the cells were treated so that the final concentration of RSL3 became 1 μM, and cultured for 2 hours. To confirm the inhibitory effect against cytosolic lipid reactive oxygen species, BODIPY™ 581/591 C11 (lipid peroxidation sensor) [Invitrogen™; D3861] was used. According to the manufacturer's experimental method, BODIPY™ 581/591 C11 was diluted in the cell culture medium so that the final concentration became 5 μM, and the cells were treated therewith and allowed to react for 30 minutes to perform fluorescent staining. The MLE-12 cells fluorescently stained with BODIPY™ 581/591 C11 were detached from the 12-well plate using 0.25% Trypsin-EDTA and transferred to a microtube, and the fluorescence (excitation/absorption 500 to 650 nm/510 to 665 nm) was measured using BD FACSLyric™ to calculate the rate of change compared to the control group.

H9C2 cells [3] = assay: Cell death protection by real-time imaging after erastin; conditions: H9C2, erastin 1 μM, compound 0.1 μM, imaged every 3 hours for 24 hours
Experimental: To confirm a cell death protection effect on cardiac cells through images, 2.5×10^5 H9C2 cells were dispensed into each confocal dish and cultured for 2 days. Each dish was treated with Example Compound 1 and ferrostatin-1, which were diluted to a final concentration of 0.1 μM, and culture was performed for 20 minutes. Afterwards, the cells were treated with erastin so that the final concentration became 1 μM, and images were taken using real-time imaging equipment [Nanolive; CX-A] every 3 hours for 24 hours to confirm changes in the H9C2 cells.

H9C2 cells [4] = assay: Mitochondrial morphological changes (TEM) after erastin; conditions: H9C2, 5 μM erastin, 10 μM compound, 5 hours
Experimental: To confirm whether Example Compound 1 may inhibit mitochondrial morphological changes due to ferroptosis, an experiment was performed using a transmission electron microscope (TEM). To collect cardiac cell samples, 1.3×10^6 H9C2 cells were cultured in a 150 mm cell culture dish for 4 days, and the culture medium was replaced with fresh culture medium on the second day. After treating the cells with Example Compound 1 at a final concentration of 10 µM for 30 minutes, an erastin-only treatment group was treated with a culture medium including 5 μM erastin; an erastin-Example Compound 1 treatment group was treated with a culture medium including 5 μM erastin and 10 μM Example Compound 1; and the V.C group was treated with a culture medium including the same amount of DMSO, and each group was treated for 5 hours. Afterwards, the supernatant was discarded, and the cells were washed with a 37° C. PBS solution three times. 10 mL of a 2.5% glutaraldehyde solution diluted in PBS was added and treated at room temperature for 1 hour. After washing with PBS solution three times, the remaining PBS solution was completely removed using an aspirator. 1 mL of PBS solution was added to recover the cells with a plastic scraper, and the cells were transferred to a 1.5 mL tube. Cells were allowed to settle using a centrifuge (3000 rpm) for 5 minutes. […]

MLE-12 cells [5] = assay: Cytosolic ROS (CM-H2DCFDA) after RSL3; conditions: MLE-12, 1 μM RSL3, 2 hours
Experimental: To confirm the protective effect against cytosolic reactive oxygen species in lung epithelial cells, 2×10^5 MLE-12 cells were dispensed into each well of a 12-well plate and cultured for 18 to 24 hours. Each well was treated with Example Compound 1 and ferrostatin-1, which were diluted so that their final concentration became 0.01, 0.1, 1, and 10 μM, and culture was performed for 15 minutes. Afterwards, the cells were treated so that the final concentration of RSL3 became 1 μM, and cultured for 2 hours. To confirm the inhibitory effect against cytosolic reactive oxygen species, CM-H2DCFDA (general oxidative stress indicator) [Invitrogen™; C6827] was used. According to the manufacturer's experimental method, CM-H2DCFDA was diluted in the cell culture medium so that the final concentration became 5 μM, and the cells were treated therewith and allowed to react for 30 minutes to perform fluorescent staining. The MLE-12 cells fluorescently stained with CM-H2DCFDA were detached from the 12-well plate using 0.25% Trypsin-EDTA and transferred to a microtube, and the fluorescence (excitation/absorption 492 to 495 nm/517 to 527 nm) was measured using BD FACSLyric™ to calculate the rate of change compared to the control group.

Row | Structure (SMILES) | concentration at which mitochondrial iron ion accumulation was significantly decreased (MLE-12 cells [1]) [µM] | concentration at which cytosolic lipid reactive oxygen species were significantly decreased (MLE-12 cells [2]) [µM] | time for which cell death was inhibited (H9C2 cells [3]) | mitochondrial morphological changes (size decrease, cristae loss, outer membrane collapse), TEM (H9C2 cells [4]) | concentration at which cytosolic reactive oxygen species were significantly decreased (MLE-12 cells [5]) [µM] | time from which cell death was observed (H9C2 cells [3]) [h]
1 | O=S1(=O)CCN(Cc2cc(NC3CCOCC3)c3[nH]c(-c4ccccc4)cc3c2)CC1 [Example 1, 5-[(1,1-dioxido-4-thiomorpholinyl)methyl]-2-phenyl-N-(tetrahydro-2H-pyran-4-yl)-1H-indole-7-amine] | 0.01 | 0.1 | up to 24 hours | alleviated | 0.01 | –
2 | CCOC(=O)c1ccc(NC2CCCCC2)c(N)c1 [Fer-1, ferrostatin-1, reference compound] | 0.1 | 0.1 | up to 18 hours | – | 0.1 | ≥ 21
